The values below come from ChEMBL document CHEMBL1671642 (2009).

The structures appear in SMILES notation. Values after ≈ are worked out from the molar mass of the structure shown.

Holding throughout (format): functional
Experiment [1] deals with Escherichia coli. Nature of the experiment: Ratio of MIC for Escherichia coli K-12 3-AG300 harboring AcrB-615-628MexB-M626I mutant gene to MIC for Escherichia coli K-12 3-AG300.
For experiment [2], the system named is Escherichia coli. Nature of the experiment: Antimicrobial activity against Escherichia coli K-12 3-AG300 harboring AcrB-I626M mutant gene.
The subject of experiment [3] is Escherichia coli. Nature of the experiment: Antimicrobial activity against Escherichia coli K-12 3-AG300 harboring acrB::rpsLneo mutant gene.
Experiment [4] concerns Escherichia coli. Nature of the experiment: Antimicrobial activity against Escherichia coli K-12 3-AG300 harboring AcrB-G616N mutant gene.
The test system of experiment [5] is Escherichia coli. Nature of the experiment: Antimicrobial activity against Escherichia coli K-12 3-AG300 harboring AcrB-615-628MexB mutant gene.
Experiment [6] relates to Escherichia coli. Nature of the experiment: Antimicrobial activity against Escherichia coli K-12 3-AG300 harboring AcrB-615-628MexB-M626I mutant gene.
The subject of experiment [7] is Escherichia coli. Nature of the experiment: Ratio of MIC for Escherichia coli K-12 3-AG300 harboring AcrB-615-628MexB mutant gene to MIC for Escherichia coli K-12 3-AG300.
The test system of experiment [8] is Escherichia coli. Nature of the experiment: Antimicrobial activity against Escherichia coli K-12 3-AG300 harboring AcrB-N623S-Q624S mutant gene.
Experiment [9] concerns Escherichia coli. Nature of the experiment: Ratio of MIC for Escherichia coli K-12 3-AG300 harboring acrB::rpsLneo mutant gene to MIC for Escherichia coli K-12 3-AG300.
Experiment [10] has as its system Escherichia coli. Nature of the experiment: Antimicrobial activity against Escherichia coli K-12 3-AG300 harboring AcrB-615-628MexB-S623N mutant gene.
Experiment [11] concerns Escherichia coli. Nature of the experiment: Ratio of MIC for Escherichia coli K-12 3-AG300 harboring AcrB-G616N mutant gene to MIC for Escherichia coli K-12 3-AG300.
The subject of experiment [12] is Escherichia coli. Nature of the experiment: Antimicrobial activity against Escherichia coli K-12 3-AG300 harboring AcrB-F628F mutant gene.
The test system of experiment [13] is Escherichia coli. Nature of the experiment: Antimicrobial activity against Escherichia coli K-12 3-AG300 harboring AcrB-615-628MexB-N616 mutant gene.

On to `CC[C@H]1OC(=O)[C@H](C)[C@@H](O[C@H]2C[C@@](C)(OC)[C@@H](O)[C@H](C)O2)[C@H](C)[C@@H](O[C@@H]2O[C@H](C)C[C@H](N(C)C)[C@H]2O)[C@](C)(OC)C[C@@H](C)C(=O)[C@H](C)[C@@H](O)[C@]1(C)O` [CLARITHROMYCIN], for which the Ratio with Escherichia coli [1], with Escherichia coli [7], in the experiment on Escherichia coli [9] and in the experiment on Escherichia coli [11] was 4 each time. The MIC came to 512 µg/mL (≈ 685 µM) in the experiment on Escherichia coli [2]; 4 µg/mL (≈ 5.35 µM) with Escherichia coli [3]; 128 µg/mL (≈ 171 µM) against Escherichia coli [4]; 64 µg/mL (≈ 85.6 µM) against Escherichia coli [5]; 64 µg/mL (≈ 85.6 µM) in the experiment with Escherichia coli [6]; 512 µg/mL (≈ 685 µM) against Escherichia coli [8]. The MIC against Escherichia coli [10] amounted to 128 µg/mL (≈ 171 µM); in the experiment with Escherichia coli [12] it was 512 µg/mL (≈ 685 µM); against Escherichia coli [13] it was 512 µg/mL (≈ 685 µM).
As for `CC(=O)NC[C@H]1CN(c2ccc(N3CCOCC3)c(F)c2)C(=O)O1` [LINEZOLID], the MIC with Escherichia coli [2] is 512 µg/mL (≈ 1520 µM); with Escherichia coli [3] it was 16 µg/mL (≈ 47.4 µM); with Escherichia coli [4], 512 µg/mL (≈ 1520 µM); against Escherichia coli [5], 1020 µg/mL (≈ 3040 µM); against Escherichia coli [6], 1020 µg/mL (≈ 3040 µM); against Escherichia coli [8], 512 µg/mL (≈ 1520 µM). For the same molecule, the MIC stood at 1020 µg/mL (≈ 3040 µM) with Escherichia coli [10], 512 µg/mL (≈ 1520 µM) in the experiment with Escherichia coli [12] and 1020 µg/mL (≈ 3040 µM) in the experiment with Escherichia coli [13]. Moreover, the Ratio in the experiment on Escherichia coli [9] is 4.
As to `CCOc1ccc(-c2nc3cc(-c4nc5cc(N6CCN(C)CC6)ccc5[nH]4)ccc3[nH]2)cc1`, the MIC against Escherichia coli [3] is 0.125 µg/mL (≈ 0.276 µM); in the experiment with Escherichia coli [5] it was 4 µg/mL (≈ 8.84 µM); in the experiment on Escherichia coli [12], 4 µg/mL (≈ 8.84 µM). In the experiment on Escherichia coli [9], the Ratio is 4.
Consider `Cc1onc(-c2ccccc2)c1C(=O)N[C@@H]1C(=O)N2[C@@H]1SC(C)(C)[C@@H]2C(=O)O` [OXACILLIN], for which the minimum inhibitory concentration (MIC) worked out at 512 µg/mL (≈ 1280 µM) in the experiment on Escherichia coli [2]; 0.5 µg/mL (≈ 1.25 µM) in the experiment with Escherichia coli [3]; 256 µg/mL (≈ 638 µM) in the experiment with Escherichia coli [4]; 256 µg/mL (≈ 638 µM) in the experiment on Escherichia coli [5]; 256 µg/mL (≈ 638 µM) with Escherichia coli [6]; 256 µg/mL (≈ 638 µM) in the experiment on Escherichia coli [8]. Moreover, the MIC is 512 µg/mL (≈ 1280 µM) with Escherichia coli [10], 512 µg/mL (≈ 1280 µM) against Escherichia coli [12] and 256 µg/mL (≈ 638 µM) in the experiment on Escherichia coli [13]. The Ratio in the experiment on Escherichia coli [9] is 4.
Take `CC[C@H]1OC(=O)[C@H](C)[C@@H](O[C@H]2C[C@@](C)(OC)[C@@H](O)[C@H](C)O2)[C@H](C)[C@@H](O[C@@H]2O[C@H](C)C[C@H](N(C)C)[C@H]2O)[C@](C)(O)C[C@@H](C)C(=O)[C@H](C)[C@@H](O)[C@]1(C)O` [ERYTHROMYCIN]: the Ratio with Escherichia coli [1], in the experiment on Escherichia coli [7], with Escherichia coli [9] and with Escherichia coli [11] was 4 throughout. In addition, the MIC against Escherichia coli [2] was 512 µg/mL (≈ 698 µM); against Escherichia coli [3], 4 µg/mL (≈ 5.45 µM); in the experiment with Escherichia coli [4], 128 µg/mL (≈ 174 µM); against Escherichia coli [5], 128 µg/mL (≈ 174 µM); against Escherichia coli [6] it was 128 µg/mL (≈ 174 µM); against Escherichia coli [10] it was 256 µg/mL (≈ 349 µM). Also, the MIC in the experiment with Escherichia coli [12] is 512 µg/mL (≈ 698 µM); against Escherichia coli [13], 256 µg/mL (≈ 349 µM).
With `CCC[C@@H]1C[C@@H](C(=O)N[C@@H]([C@H]2O[C@H](SC)[C@H](O)[C@@H](O)[C@H]2O)[C@H](C)Cl)N(C)C1` [CLINDAMYCIN], the figures for the MIC in the experiment on Escherichia coli [3], against Escherichia coli [5] and against Escherichia coli [12] were 4 µg/mL (≈ 9.41 µM), 256 µg/mL (≈ 602 µM) and 256 µg/mL (≈ 602 µM), respectively. Besides, in the experiment with Escherichia coli [9], the Ratio is reported as 4.
On to `CO[C@@H]1[C@@H](OC(N)=O)[C@@H](O)[C@H](Oc2ccc3c(O)c(NC(=O)c4ccc(O)c(CC=C(C)C)c4)c(=O)oc3c2C)OC1(C)C` [NOVOBIOCIN], for which the MIC in the experiment on Escherichia coli [2] is 512 µg/mL (≈ 836 µM); with Escherichia coli [3] it was 4 µg/mL (≈ 6.53 µM); in the experiment with Escherichia coli [4] it was 512 µg/mL (≈ 836 µM); in the experiment on Escherichia coli [5] it was 512 µg/mL (≈ 836 µM); with Escherichia coli [6], 512 µg/mL (≈ 836 µM); against Escherichia coli [8], 512 µg/mL (≈ 836 µM). The MIC is 1020 µg/mL (≈ 1670 µM) in the experiment with Escherichia coli [10], 512 µg/mL (≈ 836 µM) in the experiment with Escherichia coli [12] and 512 µg/mL (≈ 836 µM) with Escherichia coli [13]. Further, the Ratio in the experiment on Escherichia coli [9] came to 4.
For the molecule `CN(C)c1ccc(O)c2c1C[C@H]1C[C@H]3[C@H](N(C)C)C(O)=C(C(N)=O)C(=O)[C@@]3(O)C(O)=C1C2=O` [MINOCYCLINE], the MIC against Escherichia coli [2] turned out to be 4 µg/mL (≈ 8.74 µM); in the experiment with Escherichia coli [3], 0.125 µg/mL (≈ 0.273 µM); in the experiment on Escherichia coli [4] it was 4 µg/mL (≈ 8.74 µM); against Escherichia coli [5], 2 µg/mL (≈ 4.37 µM); with Escherichia coli [6], 4 µg/mL (≈ 8.74 µM); against Escherichia coli [8], 4 µg/mL (≈ 8.74 µM). Also, the results for the MIC against Escherichia coli [10], with Escherichia coli [12] and in the experiment with Escherichia coli [13] were 2 µg/mL (≈ 4.37 µM), 4 µg/mL (≈ 8.74 µM) and 2 µg/mL (≈ 4.37 µM), respectively. In addition, the Ratio with Escherichia coli [9] worked out at 4.
On to `O=C(N[C@H](CO)[C@H](O)c1ccc([N+](=O)[O-])cc1)C(Cl)Cl` [CHLORAMPHENICOL], for which the MIC against Escherichia coli [2] was found to be 8 µg/mL (≈ 24.8 µM); in the experiment on Escherichia coli [3], 1 µg/mL (≈ 3.09 µM); against Escherichia coli [4] it was 8 µg/mL (≈ 24.8 µM); against Escherichia coli [6], 8 µg/mL (≈ 24.8 µM); against Escherichia coli [8], 8 µg/mL (≈ 24.8 µM); against Escherichia coli [12], 8 µg/mL (≈ 24.8 µM). The molecule also came in with an MIC in the experiment on Escherichia coli [13] of 8 µg/mL (≈ 24.8 µM).
`CC[C@H]1OC(=O)[C@H](C)[C@@H](O[C@H]2C[C@@](C)(OC)[C@@H](O)[C@H](C)O2)[C@H](C)[C@@H](O[C@@H]2O[C@H](C)C[C@H](N(C)C)[C@H]2O)[C@](C)(O)C[C@@H](C)CN(C)[C@H](C)[C@@H](O)[C@]1(C)O` [AZITHROMYCIN]: the Ratio in the experiment with Escherichia coli [1], with Escherichia coli [7], in the experiment with Escherichia coli [9] and in the experiment with Escherichia coli [11] was 4 in each case. The MIC is 32 µg/mL (≈ 42.7 µM) with Escherichia coli [2]; 0.5 µg/mL (≈ 0.668 µM) against Escherichia coli [3]; 16 µg/mL (≈ 21.4 µM) in the experiment on Escherichia coli [4]; 16 µg/mL (≈ 21.4 µM) in the experiment with Escherichia coli [5]; 8 µg/mL (≈ 10.7 µM) in the experiment with Escherichia coli [6]; 16 µg/mL (≈ 21.4 µM) with Escherichia coli [10]. Further, the MIC in the experiment with Escherichia coli [12] and in the experiment with Escherichia coli [13] was 64 µg/mL (≈ 85.4 µM) each time.
With `CCBr` [BROMOETHANE], the MIC against Escherichia coli [2] was 1020 µg/mL (≈ 9400 µM); against Escherichia coli [3] it was 16 µg/mL (≈ 147 µM); in the experiment with Escherichia coli [4], 1020 µg/mL (≈ 9400 µM); against Escherichia coli [5], 512 µg/mL (≈ 4700 µM); with Escherichia coli [6], 512 µg/mL (≈ 4700 µM); with Escherichia coli [8], 1020 µg/mL (≈ 9400 µM). Further, the MIC against Escherichia coli [10], in the experiment on Escherichia coli [12] and against Escherichia coli [13] was 512 µg/mL (≈ 4700 µM) each time. In the experiment on Escherichia coli [9], the Ratio is on record as 4.

In general, MIC refers to the smallest concentration in the dilution series that meets the test's criterion for growth inhibition. The low end stands for inhibition by little substance, the high end for a need for much substance.
